Laboratory results: ChEMBL document CHEMBL4190235, “Polysubstituted 2-aminoimidazoles as anti-biofilm and antiproliferative agents: Discovery of potent lead” (Eur J Med Chem, 2017)

Tests used:
Pseudomonas aeruginosa [1] = assay: Antibiofilm activity against Pseudomonas aeruginosa PA14 after 24 hrs by crystal violet staining based method; format: functional
Pseudomonas aeruginosa [2] = assay: Inhibition of planktonic growth of Pseudomonas aeruginosa PA14 cells; format: organism-based
Salmonella typhimurium [3] = assay: Antibiofilm activity against Salmonella typhimurium ATCC 14028 after 24 hrs by crystal violet staining based method; format: functional, Salmonella enterica subsp. enterica serovar Typhimurium
Salmonella typhimurium [4] = assay: Inhibition of planktonic growth of Salmonella typhimurium ATCC 14028; format: organism-based, Salmonella enterica subsp. enterica serovar Typhimurium; conditions: Salmonella enterica
Staphylococcus aureus [5] = assay: Antibiofilm activity against Staphylococcus aureus SH1000 after 48 hrs by crystal violet staining based method; format: functional
Staphylococcus aureus [6] = assay: Inhibition of planktonic growth of Staphylococcus aureus SH1000; format: organism-based
A-375 = assay: Antiproliferative activity against human A375 cells after 48 hrs by MTT assay; format: functional, cell-based; conditions: A-375, 48 h
MIA PaCa-2 = assay: Antiproliferative activity against human MIAPaCa2 cells after 48 hrs by MTT assay; format: functional, cell-based; conditions: MIA PaCa-2, 48 h

| IC50 (A-375) [µM] | IC50 (MIA PaCa-2) [µM] | SMILES | MBIC50 (Pseudomonas aeruginosa [1]) [µM] | IC50 (Pseudomonas aeruginosa [2]) [µM] | MBIC50 (Salmonella typhimurium [3]) [µM] | IC50 (Salmonella typhimurium [4]) [µM] | MBIC50 (Staphylococcus aureus [5]) [µM] | IC50 (Staphylococcus aureus [6]) [µM] |
| --- | --- | --- | --- | --- | --- | --- | --- | --- |
|  |  | O=C(OC[C@H]1O[C@@H](OC(=O)c2cc(O)c(O)c(OC(=O)c3cc(O)c(O)c(O)c3)c2)[C@H](OC(=O)c2cc(O)c(O)c(OC(=O)c3cc(O)c(O)c(O)c3)c2)[C@@H](OC(=O)c2cc(O)c(O)c(OC(=O)c3cc(O)c(O)c(O)c3)c2)[C@@H]1OC(=O)c1cc(O)c(O)c(OC(=O)c2cc(O)c(O)c(O)c2)c1)c1cc(O)c(O)c(OC(=O)c2cc(O)c(O)c(O)c2)c1 [TANNIC ACID] | 27.7 | > 400 | 18.8 | > 400 | 115.3 | > 400 |
| 1.4 | 3.4 | Cc1ccc(NC(=O)Cn2c(N)nc(Cc3ccc(C(C)(C)C)cc3)c2-c2ccccc2Br)cc1 | >400 | > 400 | 17.6 | > 400 | 3.9 | 7.9 |
| 2.8 | 4.9 | CC(C)(C)c1ccc(Cc2nc(N)n(CC(=O)Nc3ccccc3)c2-c2ccccc2Br)cc1 | 124.3 | > 400 | 12.5 | > 400 | 6.5 | 7.8 |
| 2.5 | 9.2 | Cc1ccc(Cc2nc(N)n(CC(=O)Nc3ccccc3)c2-c2ccccc2Br)cc1 | >400 | > 400 | >400 | > 400 | >400 | > 400 |
| 2.6 | 3.5 | Cc1ccc(NC(=O)Cn2c(N)nc(CC3CC3)c2-c2ccccc2Br)cc1 | 16 | 23.6 | 21.3 | 24.5 | 21.9 | 30.6 |
|  |  | CC(C)(C)c1ccc(Cc2nc(N)n(CC(=O)Nc3ccc([N+](=O)[O-])cc3)c2-c2ccccc2Br)cc1 | >400 | > 400 | >400 | > 400 | >400 | > 400 |
| 24.3 | 61.4 | Nc1nc(CC2CCCC2)c(-c2ccccc2Br)n1CC(=O)Nc1ccccc1 | >400 | > 400 | >400 | > 400 | >400 | > 400 |
| 5.2 | 5.7 | Nc1nc(Cc2ccccc2)c(-c2ccccc2Br)n1CC(=O)Nc1ccccc1 | >400 | > 400 | >400 | > 400 | >400 | > 400 |
| 17.5 | 48.8 | Cc1ccc(NC(=O)Cn2c(N)nc(CC3CCCCC3)c2-c2ccccc2Br)cc1 | >400 | > 400 | >400 | > 400 | >400 | > 400 |
| 4.3 | 5.6 | CCCCCc1nc(N)n(CC(=O)Nc2ccc(C)cc2)c1-c1ccccc1Br | 42.4 | 76 | 31.5 | 200 | 29.8 | 33.2 |
| 40.6 | 89 | Nc1nc(CC2CCCCC2)c(-c2ccccc2Br)n1CC(=O)Nc1ccccc1 | >400 | > 400 | >400 | > 400 | >400 | > 400 |
| 47.8 | 80.5 | Cc1ccc(NC(=O)Cn2c(N)nc(CC3CCCC3)c2-c2ccccc2Br)cc1 | >400 | > 400 | >400 | > 400 | 289.6 | > 400 |
|  |  | O=C(N/N=C/c1ccc([N+](=O)[O-])o1)c1ccc(O)cc1 [NIFUROXAZIDE] | >400 | > 400 | >400 | > 400 | >400 | > 400 |
| 2 | 3.8 | Cc1ccc(NC(=O)Cn2c(N)nc(Cc3ccccc3)c2-c2ccccc2Br)cc1 | 16.8 | 13.8 | 6 | 29.8 | 7.6 | 12.3 |
|  |  | Nc1nc(Cc2ccccc2)c(-c2ccccc2Br)n1CC(=O)NCc1ccccc1 | 382.1 | 55.7 | 38.8 | > 400 | 41.5 | 55.7 |
| 9.2 | 7.9 | CCCCCCCc1nc(N)n(CC(=O)Nc2ccccc2)c1-c1ccccc1Br | 221.9 | > 400 | 114.8 | > 400 | 18.1 | 70.8 |
| 26.4 | 40.6 | CCCCCc1nc(N)n(CC(=O)Nc2ccccc2)c1-c1ccccc1Br | >400 | > 400 | >400 | > 400 | 21.3 | > 400 |
|  |  | CC(C)(C)c1ccc(Cc2nc(N)n(CC(=O)NCc3ccccc3)c2-c2ccccc2Br)cc1 | >400 | > 400 | >400 | > 400 | >400 | > 400 |
| 5.8 | 6.9 | Nc1nc(CC2CC2)c(-c2ccccc2Br)n1CC(=O)Nc1ccccc1 | 86.3 | 155 | 107.6 | > 400 | 29.2 | 130 |
|  |  | O=c1cc(-c2ccccc2)oc2cc(O)c(O)c(O)c12 [BAICALEIN] | >400 | > 400 | >400 | > 400 | 77.5 | > 400 |
| 0.7 | 2.5 | CC(=O)O[C@H]1C(=O)[C@@]2(C)[C@H]([C@H](OC(=O)c3ccccc3)[C@]3(O)C[C@H](OC(=O)[C@H](O)[C@@H](NC(=O)c4ccccc4)c4ccccc4)C(C)=C1C3(C)C)[C@]1(OC(C)=O)CO[C@@H]1C[C@@H]2O [PACLITAXEL] |  |  |  |  |  |  |
| 5.2 | 7 | CCCCCCCc1nc(N)n(CC(=O)Nc2ccc(C)cc2)c1-c1ccccc1Br | 291.1 | 190 | 37.7 | > 400 | 14.4 | 22.8 |
| 5.1 | 6.5 | CCCCCCc1nc(N)n(CC(=O)Nc2ccc(C)cc2)c1-c1ccccc1Br | 29.5 | 49.6 | 21.8 | > 400 | 12.6 | 23.1 |
| 5.7 | 8.6 | CCCCCCc1nc(N)n(CC(=O)Nc2ccccc2)c1-c1ccccc1Br | 50.7 | 119 | 35.7 | > 400 | 6.6 | 16.3 |
|  |  | COc1ccc(NC(=O)Cn2c(N)nc(Cc3ccc(C(C)(C)C)cc3)c2-c2ccccc2Br)cc1 | >400 | > 400 | 231.2 | > 400 | 11.5 | 37.2 |
